In patent US11266642B2, “Small molecule inhibitors of HLA-DR3 binding for treating autoimmune thyroiditis” (ICAHN SCHOOL OF MEDICINE AT MOUNT SINAI, priority 2015, dated 2022):

Experiments:
[1] = target: T1, HLA-DR3 on VAVY cells (HLA-DRβ1-Arg74 positive) (Homo sapiens, UniProt P01903+P01911, A100K/A102G/A103R/A169T/F55Y/I96L/K41T/L162R/M171V/P40S/Q125H/Q178H/Q39Y/R42S/S66N/T106N/T262R/W38E/Y61H); assay: Tg.2098 peptide binding to VAVY cells, flow cytometry; format: cell-based; settings: 0.025 mM Ia, 7 h pre-incubation; 0.5 μM Tg.2098, 24 h; 42.7% without Ia
T1 construct: VAVY B-cell line that is homozygous for DR3 (confirmed to contain DRβ1-Arg74); host or cells: VAVY B-cell line
T1 sequence (P01903 26-254, other chains not shown): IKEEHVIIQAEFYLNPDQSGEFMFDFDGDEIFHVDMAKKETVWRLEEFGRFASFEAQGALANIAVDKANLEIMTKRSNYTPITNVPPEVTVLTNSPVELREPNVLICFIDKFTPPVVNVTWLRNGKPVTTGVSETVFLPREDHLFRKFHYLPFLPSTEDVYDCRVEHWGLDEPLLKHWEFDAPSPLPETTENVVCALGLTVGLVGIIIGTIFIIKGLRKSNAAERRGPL
Procedure: VAVY cells (European Collection of Cell Cultures) were cultured in RPMI (ATCC, Manassas, Va.) supplied with 10% FBS (Sigma-Aldrich, St. Louis, Mo.), 1% Penicillin-Streptomycin (Corning, N.Y.), 2 mM glutamine (Corning, N.Y.) and […] ciprofloxacin hydrochloride (Hospira, Lake Forest, Ill.). Cells were grown at 37° C., 5% CO2 and passaged 1-2 times a week. Cells expressing DR2 (National Development and Research Institutes, Inc) were cultured using the same conditions as VAVY cells. N-terminal biotinylated peptide Tg.2098 was used to test for binding to VAVY cells which express HLA-DR3 on their surface (HLA-DRβ1-Arg74 positive). APC Streptavidin (BD Biosciences, Franklin Lakes, N.J.) was used to detect the biotinylated peptides. A scrambled peptide of Tg.2098 (scr2098) was used as a negative control. VAVY cells were seeded at 2.5×10^6 cells/mL in a 24-well plate (BD Biosciences) and pre-incubated for 7 hours with 0.025 mM of compound Ia or 40% Captisol (Ligand Pharmaceuticals, Inc, La Jolla, Calif.) [the vehicle used to dissolve test compound in this experiment], before 0.5 μM Tg.2098 was added. After 24 h incubation, cells were stained with PE mouse anti-human HLA-DR (BD Biosciences) and APC Streptavidin to detect binding of the peptide to VAVY cells and the inhibitory effect of Compound Ia. Inhibition was analyzed by flow cytometry. As a negative control, cells expressing HLA-DR2 were pre-incubated with example Ia or 40% Captisol, before biotinylated myelin basic protein (MBP) 87-99 (known binder to HLA-DR2) was added and incubated for 24 hours. HLA-DR2 cells were stained with PE mouse anti-human HLA-DR and APC Streptavidin to detect binding of biotinylated MBP87-99 to DR2 expressing cells and to assess the inhibitory effect of compound Ia on peptide binding. To confirm the ELISA results we performed binding inhibition studies using the VAVY B-cell line that is homozygous for DR3 (confirmed to contain DRβ1-Arg74). […]

[2] = system: T-cell proliferative responses to hTg; assay: In vivo IP administration in hTg-immunized NOD-DR3 mice (EAT), T-cell proliferation CFSE assay; set-up: species or system mouse; settings: IP 125 μg on days -2, -1, 5, 6; sacrifice day 21; vehicle 2.3 ± 0.5; p=0.0432
Description: Mice transgenic for DRB1*0301 were originally generated by G. J Hämmerling and co-workers as previously described [Strauss et al. Immunogenetics 40, 104-108 (1994)]. Briefly, the DR3 (DRA1*0101/DRB1*0301) transgenes were inserted into (C57BL/6×DBA/2) F1 embryos and the progeny were back-crossed to B10.Q mice. The DR3 mice were crossed with I-Aβ knockouts (C57BL/6×129) to obtain mice lacking murine MHC class II and expressing human DR3. The transgenic mouse line was maintained by intercrossing. The background non-MHC genes in the DR3 transgenic line was 50% C57BL/10 genes and 50% contribution from CBA, C57BL/6, and 129 genes. These mice were then back-crossed into NOD background to produce the NOD-DR3 mice [Flynn et al. J Autoimmun, 17, 7-15 (2001)]. The transgene was confirmed to be HLA-DRβ1-Arg74 positive. […]
Seven female NOD-DR3 mice (6-10 weeks old) were injected IP with […] Compound Ia on day (−2) and day (−1), followed by SQ immunization of human thyroglobulin (hTg) mixed with CFA on day 0. […] The stimulation index was calculated by using the formula described above: Stimulation index=[% proliferating lymphocytes (hTg, peptide or mitogen-treated)]/[% proliferating lymphocytes (medium-treated)].

COc1ccc2cc1Oc1ccc(cc1)C[C@H]1c3c(cc4c(c3Oc3cc5c(cc3OC)CCN(C)[C@@H]5C2)OCO4)CCN1C [Compound Ia, cepharanthine]
binding of Tg.2098 to VAVY cells in the presence of Ia [1]: 16.6% | Stimulation index, T-cell stimulation in response to hTg [2]: 1.3 ± 0.2
